This note sets out measurements from US4256731A, “Oral Compositions” (priority 1979, dated 1981).

The nature of this test: in vitro stain assay: inhibition of alexidine dihydrochloride mediated stain on saliva-coated hydroxylapatite, 5% tannic acid as staining agent. The note with it: tested in triplicate, pH and acid:alexidine mole ratio as listed per formulation. On the procedure: Methods: The substrate for the in vitro stain assay was a saliva-coated hydroxylapatite and the staining agent was 5% tannic acid. Each formulation was tested in triplicate.
Turning to `N[C@@H](CC(=O)O)C(=O)O` [Aspartic Acid], the “% Inhibition of Alexidine . 2HCl Mediated Stain” value (from here on “% Inhibition”) worked out at 34%.

Consider `O=C(O)CC(O)(CC(=O)O)C(=O)O` [Citric Acid], for which the “% Inhibition” value is recorded as 32%.

Take `O=C(O)/C=C/C(=O)O` [Fumaric Acid]: the “% Inhibition” value came out at 44%.

Regarding `N[C@@H](CCC(=O)O)C(=O)O` [Glutamic Acid], the “% Inhibition” value is given as 40%.

Regarding `Nc1ccc(C(=O)O)cc1` [p-Aminobenzoic Acid], the “% Inhibition” value is given as 22%.
